Numbered stars: 1 amine (or outer) side, 2 acyl side, 3 side chain; on linkers, the order of the positions; unused ones are H or OH. Square brackets hold non-standard residues; d marks the D form. Peptide text beside a SMILES is read from it. * marks the point of attachment. X8 = CN1CCN(S(=O)(=O)N[C@@H](Cc2ccccc2)C(=O)*)CC1; Propanoyl(3-(4-F-phenyl)) = O=C(CCc1ccc(F)cc1)*; NMeY = CN[C@@H](Cc1ccc(O)cc1)C(=O)O; Piperazinyl(4-Me) = CN1CCN(*)CC1; NHPhenethyl = c1ccc(CCN*)cc1; Nicotinoyl = O=C(c1cccnc1)*; X5 = C1CCC(N(C2CCCCC2)*)CC1; NMeS = CN[C@@H](CO)C(=O)O; Morpholide = C1CN(*)CCO1; NHcHex = C1CCC(N*)CC1; CO = O=C([*:1])[*:2]; For = O=C*
molecular target: T1, LHRH receptors (Rattus norvegicus, UniProt P30969); experiment: Receptor Binding (radioligand receptor binding assay); conditions: Receptor Binding pkI, table 3; rat pituitary membranes, radioiodinated [D-Leu^6 -des Gly^10 ]-LHRH ethyl amide 50 pM, 2 hours at 4° C.
T1 construct: Pituitary membranes containing LHRH receptors are prepared in batches from quick-frozen rat pituitaries; tissue Hilltop Labs; host or cells: rat pituitary membranes
T1 sequence (P30969 1-327): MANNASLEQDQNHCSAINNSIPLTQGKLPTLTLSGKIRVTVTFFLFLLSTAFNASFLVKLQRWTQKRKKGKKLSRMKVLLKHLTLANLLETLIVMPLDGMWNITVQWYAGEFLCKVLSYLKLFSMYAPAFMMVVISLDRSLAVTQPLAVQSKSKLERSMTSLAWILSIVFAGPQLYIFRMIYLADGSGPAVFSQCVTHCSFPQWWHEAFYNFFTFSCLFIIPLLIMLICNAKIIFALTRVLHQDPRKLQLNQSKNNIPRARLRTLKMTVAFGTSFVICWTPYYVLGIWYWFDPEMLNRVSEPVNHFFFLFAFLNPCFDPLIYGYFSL

Row | SMILES | Ki
1 | CCNC(=O)[C@@H]1CCCN1C(=O)[C@H](CCCNC(=N)N)NC(=O)[C@H](CC(C)C)NC(=O)[C@@H](Cc1c[nH]c2ccccc12)NC(=O)[C@H](Cc1ccc(O)cc1)NC(=O)[C@H](CO)NC(=O)[C@H](Cc1c[nH]c2ccccc12)NC(=O)[C@H](Cc1ccccc1)NC(=O)N(C1CCCCC1)C1CCCCC1 [Compound 126, (2-9)[N-(N-alpha-Dicyclohexylaminocarbonyl)-Phe^2 -D-Trp^6 -Pro^9 NHEt]LHRH] ({X5-CO}-FWSY[dW]LRP-NHEt) | 37.2 nM

same assay, conditions: table 3; rat pituitary membranes, radioiodinated [D-Leu^6 -des Gly^10 ]-LHRH ethyl amide 50 pM, 2 hours at 4° C.; read-out: Receptor Binding pkI (converted)

Row | SMILES | Ki
2 | CCNC(=O)[C@@H]1CCCN1C(=O)[C@H](CCCNC(=N)N)NC(=O)[C@H](CC(C)C)NC(=O)[C@@H](Cc1c[nH]c2ccccc12)NC(=O)[C@H](Cc1ccc(O)cc1)NC(=O)[C@H](CO)NC(=O)[C@H](Cc1ccc(O)cc1)N(C)C(=O)[C@H](Cc1ccccc1)NC(=O)N1CCOCC1 [Compound 116, (2-9)[N-(N-alpha-Morpholinocarbonyl)-Phe^2 -N-Me-Tyr^3 -D-Trp^6-Pro^9 NHEt]LHRH] ({Morpholide-CO}-F[NMeY]SY[dW]LRP-NHEt) | 5.01 nM
3 | CCNC(=O)[C@@H]1CCCN1C(=O)[C@H](CCCNC(=N)N)NC(=O)[C@H](CC(C)C)NC(=O)[C@@H](CCCCNC(=O)c1cccnc1)NC(=O)[C@H](Cc1ccc(O)cc1)NC(=O)[C@H](CO)NC(=O)[C@H](Cc1c[nH]c2ccccc12)NC(=O)[C@H](Cc1ccccc1)NC(=O)N1CCOCC1 [Compound 117, N-(N-alpha-Morpholinocarbonyl)-Phe-Trp-Ser-Tyr-D-Lys(Nic) -Leu-Arg-ProNHEt] ({Morpholide-CO}-FWSY[dK](Nicotinoyl)LRP-NHEt) | 1.86 nM
4 | CCNC(=O)[C@@H]1CCCN1C(=O)[C@H](CCCN=C(N)N)NC(=O)[C@H](CC(C)C)NC(=O)[C@@H](CCCCNC(=O)c1cccnc1)NC(=O)[C@H](Cc1ccc(O)cc1)NC(=O)[C@H](CO)NC(=O)[C@H](Cc1c[nH]c2ccccc12)NC(=O)CCc1ccc(F)cc1 [Compound 119, N-(3-(4-Fluorophenyl)propionyl)-Trp-Ser-Tyr-D-Lys(Nic) -Leu-Arg-Pro-NHEt] ({Propanoyl(3-(4-F-phenyl))}-WSY[dK](Nicotinoyl)LRP-NHEt) | 0.347 nM
5 | CCNC(=O)[C@@H]1CCCN1C(=O)[C@H](CCCN=C(N)N)NC(=O)[C@H](CC(C)C)NC(=O)[C@@H](Cc1c[nH]c2ccccc12)NC(=O)[C@H](Cc1ccc(O)cc1)NC(=O)[C@H](CO)N(C)C(=O)[C@@H](Cc1c[nH]c2ccccc12)NC(=O)CCc1ccc(F)cc1 [Compound 121] ({Propanoyl(3-(4-F-phenyl))}-[dW][NMeS]Y[dW]LRP-NHEt) | 0.0955 nM
6 | CCNC(=O)[C@@H]1CCCN1C(=O)[C@H](CCCN=C(N)N)NC(=O)[C@H](CC(C)C)NC(=O)[C@@H](CCCCNC(=O)c1cccnc1)NC(=O)[C@H](Cc1ccc(O)cc1)N(C)C(=O)[C@H](CO)NC(=O)[C@@H](Cc1c[nH]c2ccccc12)NC(=O)CCc1ccc(F)cc1 [Compound 122, N-(3-(4-Fluorophenyl)propionyl)-D-Trp-Ser-N-Me-Tyr-D -Lys(Nic)-Leu-Arg-ProNHEt] ({Propanoyl(3-(4-F-phenyl))}-[dW]S[NMeY][dK](Nicotinoyl)LRP-NHEt) | 0.00955 nM
7 | CC(C)C[C@H](NC(=O)[C@@H](Cc1cn(C=O)c2ccccc12)NC(=O)[C@H](Cc1ccc(O)cc1)NC(=O)[C@H](CO)NC(=O)[C@@H](Cc1cn(C=O)c2ccccc12)NC(=O)CCc1ccc(F)cc1)C(=O)N[C@@H](CCCNC(=N)N)C(=O)N1CCC[C@H]1C(=O)N[C@H](C)C(N)=O [Compound 123, N-3-(4-Fluorophenyl)propionyl-D-Trp-(N-indole-formyl)-Ser -Tyr-D-Trp(N-indole-formyl)-Leu-Arg-Pro-D-AlaNH2] ({Propanoyl(3-(4-F-phenyl))}-[dW](For)SY[dW](For)LRP[dA]-NH2) | 0.331 nM

Results, then the compound that gave them:

Row | Ki | SMILES
8 | 0.00575 nM | CCNC(=O)[C@@H]1CCCN1C(=O)[C@H](CCCNC(=N)N)NC(=O)[C@H](CC(C)C)NC(=O)[C@@H](Cc1c[nH]c2ccccc12)NC(=O)[C@H](Cc1ccc(O)cc1)N(C)C(=O)[C@H](CO)NC(=O)[C@H](Cc1c[nH]c2ccccc12)NC(=O)[C@H](Cc1ccccc1)NC(=O)N1CCOCC1 [Compound 114, (2-9)[N-(N-alpha-Morpholinocarbonyl)-Phe^2 -N-Me-Tyr^5 -D-Trp^6-Pro^9 -NHEt]LHRH] ({Morpholide-CO}-FWS[NMeY][dW]LRP-NHEt)
9 | 2.24 nM | CCNC(=O)[C@@H]1CCCN1C(=O)[C@H](CCCNC(=N)N)NC(=O)[C@H](CC(C)C)NC(=O)[C@@H](Cc1c[nH]c2ccccc12)NC(=O)[C@H](Cc1ccc(O)cc1)NC(=O)[C@H](CO)N(C)C(=O)[C@H](Cc1c[nH]c2ccccc12)NC(=O)[C@H](Cc1ccccc1)NC(=O)N1CCOCC1 [Compound 115, (2-9)[N-(N-alpha-Morpholinocarbonyl)-Phe^2 -N-Me-Ser^4 -D-Trp^6-Pro^9 -NHEt]LHRH] ({Morpholide-CO}-FW[NMeS]Y[dW]LRP-NHEt)
10 | 0.347 nM | CCNC(=O)[C@@H]1CCCN1C(=O)[C@H](CCCNC(=N)N)NC(=O)[C@H](CC(C)C)NC(=O)[C@@H](Cc1c[nH]c2ccccc12)NC(=O)[C@H](Cc1ccc(O)cc1)NC(=O)[C@H](CO)NC(=O)[C@H](Cc1c[nH]c2ccccc12)NC(=O)[C@H](Cc1ccccc1)NC(=O)NCCc1ccccc1 [Compound 124, (2-9)[N-(N-alpha-Phenethylaminocarbonyl)-Phe^2 -D-Trp^6 -Pro^9 NHEt]LHRH] ({NHPhenethyl-CO}-FWSY[dW]LRP-NHEt)
11 | 0.251 nM | CCNC(=O)[C@@H]1CCCN1C(=O)[C@H](CCCNC(=N)N)NC(=O)[C@H](CC(C)C)NC(=O)[C@@H](Cc1c[nH]c2ccccc12)NC(=O)[C@H](Cc1ccc(O)cc1)NC(=O)[C@H](CO)NC(=O)[C@H](Cc1c[nH]c2ccccc12)NC(=O)[C@H](Cc1ccccc1)NC(=O)NC1CCCCC1 [Compound 125, (2-9)[N-(N-alpha-Cyclohexylaminocarbonyl)-Phe^2 -D-Trp^6 -Pro^9 NHEt]LHRH] ({NHcHex-CO}-FWSY[dW]LRP-NHEt)
12 | 0.2 nM | CCNC(=O)N[C@@H](Cc1ccccc1)C(=O)N[C@@H](Cc1c[nH]c2ccccc12)C(=O)N[C@@H](CO)C(=O)N[C@@H](Cc1ccc(O)cc1)C(=O)N[C@H](Cc1c[nH]c2ccccc12)C(=O)N[C@@H](CC(C)C)C(=O)N[C@@H](CCCNC(=N)N)C(=O)N1CCC[C@H]1C(=O)NCC [Compound 127, (2-9)[N-(N-alpha-Ethylaminocarbonyl)-Phe^2 -D-Trp^6 -Pro^9 NHEt]LHRH] ({NHEt-CO}-FWSY[dW]LRP-NHEt)
13 | 0.447 nM | CCNC(=O)[C@@H]1CCCN1C(=O)[C@H](CCCNC(=N)N)NC(=O)[C@H](CC(C)C)NC(=O)[C@@H](Cc1c[nH]c2ccccc12)NC(=O)[C@H](Cc1ccc(O)cc1)NC(=O)[C@H](CO)NC(=O)[C@H](Cc1c[nH]c2ccccc12)NC(=O)[C@H](Cc1ccccc1)NC(=O)N1CCN(C)CC1 [Compound 128, (2-9)[N-(N-alpha-N-methylpiperazinocarbonyl)-Phe^2 -D-Trp^6 -Pro^9 NHEt]LHRH] ({Piperazinyl(4-Me)-CO}-FWSY[dW]LRP-NHEt)
14 | 1.86 nM | CCNC(=O)[C@@H]1CCCN1C(=O)[C@H](CCCNC(=N)N)NC(=O)[C@H](CC(C)C)NC(=O)[C@@H](Cc1c[nH]c2ccccc12)NC(=O)[C@H](Cc1ccc(O)cc1)NC(=O)[C@H](CO)NC(=O)[C@H](Cc1c[nH]c2ccccc12)NC(=O)[C@H](Cc1ccccc1)NS(=O)(=O)N1CCN(C)CC1 [Compound 129, N-(N-alpha-(N-Methylpiperazinosulfonyl))-Phe-Trp-Ser-Tyr -D-Trp-Leu-Arg-ProNHEt] (X8-WSY[dW]LRP-NHEt)
